From patent US20230183237A1, “COMPETITIVE AND NONCOMPETITIVE INHIBITORS OF THE MUSCARINIC ACETYLCHOLINE RECEPTOR M5” (Vanderbilt University, priority 2020, published 2023) come the findings set out here.

Like-named read-outs stand apart in the source and are kept apart here.

The experiment addresses T1, hM5 (Homo sapiens, UniProt P08912).
T1 construct: expressed in transfected cells
T1 sequence (P08912 1-532): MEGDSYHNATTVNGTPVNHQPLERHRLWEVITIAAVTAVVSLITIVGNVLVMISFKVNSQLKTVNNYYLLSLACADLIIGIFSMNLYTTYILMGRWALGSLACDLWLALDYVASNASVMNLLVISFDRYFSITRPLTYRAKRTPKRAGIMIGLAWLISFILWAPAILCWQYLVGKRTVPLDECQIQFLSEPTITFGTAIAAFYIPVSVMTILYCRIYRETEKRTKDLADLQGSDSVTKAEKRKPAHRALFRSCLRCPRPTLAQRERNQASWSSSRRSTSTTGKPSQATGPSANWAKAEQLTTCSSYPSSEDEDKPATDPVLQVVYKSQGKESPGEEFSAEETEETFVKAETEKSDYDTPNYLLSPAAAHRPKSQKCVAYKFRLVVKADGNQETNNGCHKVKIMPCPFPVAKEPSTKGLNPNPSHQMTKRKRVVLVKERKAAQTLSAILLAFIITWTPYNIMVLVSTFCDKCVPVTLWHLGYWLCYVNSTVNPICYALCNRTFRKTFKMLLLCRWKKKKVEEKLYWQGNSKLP
Description: Calcium mobilization concentration-response (IC50 vs EC80 acetylcholine), CHO hM5. The settings on record: CELL LINE hM5, read-out: IC50. Type of experiment: cell-based. In short, it runs like this: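 IC50 values derive from percent maximal acetylcholine response after an EC80 ACh addition, measured as kinetic calcium fluorescence (static ratio, max−min). Test compounds were added 140 s before agonist. Cells: stable hM5-CHO in HEPES-buffered HBSS with 2.5 mM probenecid, pH 7.4; ≥3 independent triplicate determinations.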

Where [1] appears, read: calcium mobilization, EC80 acetylcholine addition.

`Cc1cc2nncn2cc1C1CCN(S(=O)(=O)c2ccc3c(c2)CCO3)CC1` [Compound 50, 6-(1-((2,3-dihydrobenzofuran-5-yl)sulfonyl)piperidin-4-yl)-7-methyl-[1,2,4]triazolo[4,3-a]pyridine]: the IC50 under setting [1] is > 10000 nM.

Take `Cc1c(S(=O)(=O)N2CC=C(c3cn4ncnc4c(F)c3Cl)CC2)cnn1C` [Compound 381, 7-chloro-6-(1-((1,5-dimethyl-1H-pyrazol-4-yl)sulfonyl)-1,2,3,6-tetrahydropyridin-4-yl)-8-fluoro-[1,2,4]triazolo[1,5-a]pyridine]: the IC50 under setting [1] amounted to 13 nM.

Consider `O=S(=O)(c1cnc(Cl)s1)N1CCC(c2cn3ncnc3cc2C(F)F)CC1` [Compound 516, 2-chloro-5-((4-(7-(difluoromethyl)-[1,2,4]triazolo[1,5-a]pyridin-6-yl)piperidin-1-yl)sulfonyl)thiazole], for which the IC50 (vs EC80 acetylcholine) came to 1700 nM.

Consider `Cc1cc2ncnn2cc1C1CCN(S(=O)(=O)c2cnn(C)c2Br)CC1` [Compound 522, 6-(1-((5-Bromo-1-methyl-1H-pyrazol-4-yl)sulfonyl)piperidin-4-yl)-7-methyl-[1,2,4]triazolo[1,5-a]pyridine], for which the IC50 (vs EC80 acetylcholine) was found to be 8 nM.

On to `Cc1ccncc1C1CCN(S(=O)(=O)c2cnc(C)n2C)CC1` [Compound 385, 3-(1-((1,2-dimethyl-1H-imidazol-5-yl)sulfonyl)piperidin-4-yl)-4-methylpyridine], for which the 50% inhibitory concentration (IC50) under setting [1] was > 10000 nM.

As for `CO[C@@H]1CN(S(=O)(=O)c2cnn(C)c2C)CC[C@H]1c1cn2ncnc2cc1C` (racemic) [Compound 411, (rac)-6-(trans-1-((1,5-dimethyl-1H-pyrazol-4-yl)sulfonyl)-3-methoxypiperidin-4-yl)-7-methyl-[1,2,4]triazolo[1,5-a]pyridine], the concentration for half-maximal inhibition (IC50) (vs EC80 acetylcholine) turned out to be 288 nM.

As to `Cc1c(S(=O)(=O)N2CCC(c3cn4ncnc4cc3OC(F)(F)F)CC2)cnn1C` [Compound 378, 6-(1-((1,5-dimethyl-1H-pyrazol-4-yl)sulfonyl)piperidin-4-yl)-7-(trifluoromethoxyl)-[1,2,4]triazolo[1,5-a]pyridine], the IC50 under setting [1] worked out at 8150 nM.

As to `Cc1cc2ncnn2cc1[C@@H]1CCN(S(=O)(=O)c2cn(C)nc2C)C[C@H]1F` (racemic) [Compound 172, (rac)-6-(trans-1-((1,3-dimethyl-1H-pyrazol-4-yl)sulfonyl)-3-fluoropiperidin-4-yl)-7-methyl-[1,2,4]triazolo[1,5-a]pyridine], under setting [1], the IC50 came to 275 nM.

With `Cc1nn(C)c(Cl)c1S(=O)(=O)N1CCC(c2cn3ncnc3cc2C(F)(F)F)CC1` [Compound 275, 6-(1-((5-chloro-1,3-dimethyl-1H-pyrazol-4-yl)sulfonyl)piperidin-4-yl)-7-(trifluoromethyl)-[1,2,4]triazolo[1,5-a]pyridine], the 50% inhibitory concentration (IC50) under setting [1] was 61 nM.

As to `Cc1cc2c(cc1C1CCN(S(=O)(=O)c3cnn(C)c3Cl)CC1)OCO2` [Compound 372, 1-((5-chloro-1-methyl-1H-pyrazol-4-yl)sulfonyl)-4-(6-methylbenzo[d][1,3]dioxol-5-yl)piperidine], the IC50 under setting [1] stood at 14 nM.

As for `Cc1cc2ncnn2cc1C1CCN(S(=O)(=O)c2ccccc2F)CC1` [Compound 97, 6-(1-((2-fluorophenyl)sulfonyl)piperidin-4-yl)-7-methyl-[1,2,4]triazolo[1,5-a]pyridine], the IC50 under setting [1] is > 10000 nM.

As for `Cc1nc2[nH]ccc2nc1C1CCN(S(=O)(=O)c2ccc3c(c2)CCO3)CC1` [Compound 15, 2-(1-((2,3-dihydrobenzofuran-5-yl)sulfonyl)piperidin-4-yl)-3-methyl-5H-pyrrolo[2,3-b]pyrazine], the half-inhibitory concentration (IC50) under setting [1] is > 10000 nM.

Consider `Cc1c(S(=O)(=O)N2CCC(c3cn4ncnc4cc3F)CC2)c(Cl)nn1C` [Compound 329, 6-(1-((3-chloro-1,5-dimethyl-1H-pyrazol-4-yl)sulfonyl)piperidin-4-yl)-7-fluoro-[1,2,4]triazolo[1,5-a]pyridine], for which the IC50 under setting [1] is 87 nM.

With `Cc1cc2ncnn2cc1C1=CCN(S(=O)(=O)c2cc3c(cc2F)OCC3)CC1` [Compound 46, 6-(1-((6-fluoro-2,3-dihydrobenzofuran-5-yl)sulfonyl)-1,2,3,6-tetrahydropyridin-4-yl)-7-methyl-[1,2,4]triazolo[1,5-a]pyridine], the half-inhibitory concentration (IC50) under setting [1] came out at 2700 nM.

On to `Cc1ncc(S(=O)(=O)N2CCC(c3cn4ncnc4cc3C(F)(F)F)CC2)n1C` [Compound 277, 6-(1-((1,2-dimethyl-1H-imidazol-5-yl)sulfonyl)piperidin-4-yl)-7-(trifluoromethyl)-[1,2,4]triazolo[1,5-a]pyridine], for which the half-inhibitory concentration (IC50) under setting [1] is 234 nM.

Turning to `Cc1c(C2CCN(S(=O)(=O)c3cnn(C)c3C(F)(F)F)CC2)cn2ncnc2c1F` [Compound 347, 8-fluoro-7-methyl-6-(1-((1-methyl-5-(trifluoromethyl)-1H-pyrazol-4-yl)sulfonyl)piperidin-4-yl)-[1,2,4]triazolo[1,5-a]pyridine], under setting [1], the IC50 was 360 nM.

As to `Cc1c(C2CCN(S(=O)(=O)c3cn(C)nn3)CC2)cn2ncnc2c1F` [Compound 558, 8-fluoro-7-methyl-6-(1-((1-methyl-1H-1,2,3-triazol-4-yl)sulfonyl)piperidin-4-yl)-[1,2,4]triazoto[1,5-a]pyridine], the half-maximal inhibitory concentration (IC50) (vs EC80 acetylcholine) is 235 nM.

With `Cc1cc2ncnn2cc1C1CCN(S(=O)(=O)c2ccc3c(c2)nnn3C)CC1` [Compound 124, 1-methyl-5-((4-(7-methyl-[1,2,4]triazolo[1,5-a]pyridin-6-yl)piperidin-1-yl)sulfonyl)-1H-benzo[d][1,2,3]triazole], the concentration for half-maximal inhibition (IC50) under setting [1] was > 10000 nM.

Consider `O=S(=O)(c1cnn2c1CCC2)N1CCC(F)(c2cn3ncnc3cc2F)CC1` [Compound 505, 6-(1-((5,6-dihydro-4H-pyrrolo[1,2-b]pyrazol-3-yl)sulfonyl)-4-fluoropiperidin-4-yl)-7-fluoro-[1,2,4]triazolo[1,5-a]pyridine], for which the IC50 (vs EC80 acetylcholine) amounted to 1310 nM.

As to `Cn1cnc2cc(C3CCN(S(=O)(=O)c4ccc5c(c4)CCO5)CC3)ccc21` [Compound 7, 5-(1-((2,3-dihydrobenzofuran-5-yl)sulfonyl)piperidin-4-yl)-1-methyl-1H-benzo[d]imidazole], under setting [1], the IC50 is > 10000 nM.

`Cc1nn(C)cc1S(=O)(=O)N1CCC(c2ccc3ncnn3c2)CC1` [Compound 63, 6-(1-((1,3-dimethyl-1H-pyrazol-4-yl)sulfonyl)piperidin-4-yl)-[1,2,4]triazolo[1,5-a]pyridine]: the concentration for half-maximal inhibition (IC50) under setting [1] is > 10000 nM.

Consider `O=S(=O)(c1cnn2c1CCCC2)N1CC=C(c2cc3ncnn3cc2Cl)CC1` [Compound 241, 6-chloro-7-(1-((4,5,6,7-tetrahydropyrazolo[1,5-a]pyridin-3-yl)sulfonyl)-1,2,3,6-tetrahydropyridin-4-yl)-[1,2,4]triazolo[1,5-a]pyridine], for which the IC50 under setting [1] is 212 nM.

As for `Cc1cn2cc(C3CCN(S(=O)(=O)c4ccc5c(c4)CCO5)CC3)ncc2n1` [Compound 18, 6-(1-((2,3-dihydrobenzofuran-5-yl)sulfonyl)piperidin-4-yl)-2-methylimidazo[1,2-a]pyrazine], the concentration for half-maximal inhibition (IC50) under setting [1] was > 10000 nM.

Take `Cc1cc2ncnn2cc1C1CCN(S(=O)(=O)c2cnn(C)c2OC(C)C)CC1` [Compound 603, 6-(1-((5-isopropoxy-1-methyl-1H-pyrazol-4-yl)sulfonyl)piperidin-4-yl)-7-methyl-[1,2,4]triazolo[1,5-a]pyridine]: under “vs EC80 acetylcholine”, the IC50 stood at 244 nM.

`Cc1ncc(S(=O)(=O)N2CC=C(c3cn4nc(C(F)F)nc4cc3C)CC2)s1` [Compound 317, 5-((4-(2-(Difluoromethyl)-7-methyl-[1,2,4]triazolo[1,5-a]pyridin-6-yl)-3,6-dihydropyridin-1(2H)-yl)sulfonyl)-2methylthiazole]: the concentration for half-maximal inhibition (IC50) under setting [1] turned out to be 6900 nM.

`COc1ccc(S(=O)(=O)N2CCC(c3nn4ccnc4cc3C)CC2)c(C)c1` [Compound 41, 6-(1-((4-methoxy-2-methylphenyl)sulfonyl)piperidin-4-yl)-7-methylimidazo[1,2-b]pyridazine]: the half-maximal inhibitory concentration (IC50) under setting [1] was > 10000 nM.

`Cc1nn(C)cc1S(=O)(=O)N1CCC(c2cc3cc[nH]c3cn2)CC1` [Compound 95, 5-(1-((1,3-dimethyl-1H-pyrazol-4-yl)sulfonyl)piperidin-4-yl)-1H-pyrrolo[2,3-c]pyridine]: under setting [1], the half-maximal inhibitory concentration (IC50) was > 10000 nM.

As for `O=S(=O)(c1cnc2sccn12)N1CCC(c2cn3ncnc3cc2Cl)CC1` [Compound 531, 5-((4-(7-chloro-[1,2,4]triazolo[1,5-a]pyridin-6-yl)piperidin-1-yl)sulfonyl)imidazo[2,1-b]thiazole], the IC50 (vs EC80 acetylcholine) amounted to 6 nM.

For the compound `Cc1cc2nccn2nc1C1CCN(S(=O)(=O)c2cnn3c2CCC3)CC1` [Compound 246, 6-(1-((5,6-dihydro-4H-pyrrolo[1,2-b]pyrazol-3-yl)sulfonyl)piperidin-4-yl)-7-methylimidazo[1,2-b]pyridazine], under setting [1], the IC50 worked out at 17 nM.

With `Cc1cc2ncnn2cc1C1CCN(S(=O)(=O)c2ccc3c(c2)C(C)CO3)CC1` (stereo not drawn) [Compound 73, 7-methyl-6-(1-((3-methyl-2,3-dihydrobenzofuran-5-yl)sulfonyl)piperidin-4-yl)-[1,2,4]triazolo[1,5-a]pyridine], the IC50 under setting [1] came to 69 nM.

The term IC50 denotes the midpoint of a concentration-inhibition curve.
